Tested on: 282377-053-R-J1-PDC complex spheroid viability
Assay: Anticancer human tumor 282377-053-R-J1-PDC patient-derived colon adenocarcinoma cell line growth inhibition [POLQ]
Details: for IC50: curve of first compound; for viability, T/C: stronger effect = lower value
In short: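 PDC + HUVEC + MSC complex spheroids; POLQ inhibitors ± partner drugs; top conc. at/near clinical Cmax, else 10 microM (SN-38 1 microM), half-log dilutions; 37 degrees C, 5% CO2.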
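Also: spheroids exposed to compounds for seven days.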
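For viability, T/C in this document: 100% = DMSO vehicle control viability.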

SMILES: CC(=O)O[C@H]1C(=O)[C@@]2(C)[C@H]([C@H](OC(=O)c3ccccc3)[C@]3(O)C[C@H](OC(=O)[C@H](O)[C@@H](NC(=O)c4ccccc4)c4ccccc4)C(C)=C1C3(C)C)[C@]1(OC(C)=O)CO[C@@H]1C[C@@H]2O + Cc1cccc(N(C)C(=O)C2C(O)CCN2c2nc(C)cc(C(F)(F)F)c2C#N)c1
- IC50 (second compound 0.0316 µM): 27.8 nM
- IC50 (second compound 0.1 µM): 28 nM
- IC50 (second compound 0.316 µM): 26 nM
- IC50 (second compound 1 µM): 27.6 nM
- IC50 (second compound 3.16 µM): 28.1 nM
- IC50 (second compound 10 µM): 26.9 nM
- viability, T/C (second compound 0.0316 µM, first compound 0.00949 µM): 103%
- viability, T/C (second compound 0.0316 µM, first compound 0.03 µM): 44.3%
- viability, T/C (second compound 0.0316 µM, first compound 0.0949 µM): 40.6%
- viability, T/C (second compound 0.0316 µM, first compound 0.3 µM): 43%
- viability, T/C (second compound 0.0316 µM, first compound 0.949 µM): 45.6%
- viability, T/C (second compound 0.0316 µM, first compound 3 µM): 57.6%
- viability, T/C (second compound 0.1 µM, first compound 0.00949 µM): 90.3%
- viability, T/C (second compound 0.1 µM, first compound 0.03 µM): 47.5%
- viability, T/C (second compound 0.1 µM, first compound 0.0949 µM): 43.4%
- viability, T/C (second compound 0.1 µM, first compound 0.3 µM): 40.9%
- viability, T/C (second compound 0.1 µM, first compound 0.949 µM): 44.8%
- viability, T/C (second compound 0.1 µM, first compound 3 µM): 53%
- viability, T/C (second compound 0.316 µM, first compound 0.00949 µM): 98.8%
- viability, T/C (second compound 0.316 µM, first compound 0.03 µM): 42.5%
- viability, T/C (second compound 0.316 µM, first compound 0.0949 µM): 38.5%
- viability, T/C (second compound 0.316 µM, first compound 0.3 µM): 37.5%
- viability, T/C (second compound 0.316 µM, first compound 0.949 µM): 45.4%
- viability, T/C (second compound 0.316 µM, first compound 3 µM): 51.4%
- viability, T/C (second compound 1 µM, first compound 0.00949 µM): 92.3%
- viability, T/C (second compound 1 µM, first compound 0.03 µM): 44.9%
- viability, T/C (second compound 1 µM, first compound 0.0949 µM): 37.2%
- viability, T/C (second compound 1 µM, first compound 0.3 µM): 45.6%
- viability, T/C (second compound 1 µM, first compound 0.949 µM): 48.8%
- viability, T/C (second compound 1 µM, first compound 3 µM): 56.7%
- viability, T/C (second compound 3.16 µM, first compound 0.00949 µM): 99.5%
- viability, T/C (second compound 3.16 µM, first compound 0.03 µM): 47.2%
- viability, T/C (second compound 3.16 µM, first compound 0.0949 µM): 39.5%
- viability, T/C (second compound 3.16 µM, first compound 0.3 µM): 44.5%
- viability, T/C (second compound 3.16 µM, first compound 0.949 µM): 45.2%
- viability, T/C (second compound 3.16 µM, first compound 3 µM): 54.2%
- viability, T/C (second compound 10 µM, first compound 0.00949 µM): 95%
- viability, T/C (second compound 10 µM, first compound 0.03 µM): 43.1%
- viability, T/C (second compound 10 µM, first compound 0.0949 µM): 37.8%
- viability, T/C (second compound 10 µM, first compound 0.3 µM): 40.7%
- viability, T/C (second compound 10 µM, first compound 0.949 µM): 46.4%
- viability, T/C (second compound 10 µM, first compound 3 µM): 58.1%

SMILES: Cn1ncnc1[C@H]1c2n[nH]c(=O)c3cc(F)cc(c23)N[C@@H]1c1ccc(F)cc1 + COC1C(OC(N)=O)C(O)C(Oc2ccc3c(O)c(NC(=O)c4ccc(O)c(CC=C(C)C)c4)c(=O)oc3c2C)OC1(C)C
- IC50 (second compound 0.0316 µM): > 100 nM
- IC50 (second compound 0.1 µM): > 100 nM
- IC50 (second compound 0.316 µM): > 100 nM
- IC50 (second compound 1 µM): > 100 nM
- IC50 (second compound 3.16 µM): > 100 nM
- IC50 (second compound 10 µM): > 100 nM
- viability, T/C (second compound 0.0316 µM, first compound 0.000316 µM): 126%
- viability, T/C (second compound 0.0316 µM, first compound 0.001 µM): 108%
- viability, T/C (second compound 0.0316 µM, first compound 0.00316 µM): 101%
- viability, T/C (second compound 0.0316 µM, first compound 0.01 µM): 98.1%
- viability, T/C (second compound 0.0316 µM, first compound 0.0316 µM): 103%
- viability, T/C (second compound 0.0316 µM, first compound 0.1 µM): 97.4%
- viability, T/C (second compound 0.1 µM, first compound 0.000316 µM): 106%
- viability, T/C (second compound 0.1 µM, first compound 0.001 µM): 122%
- viability, T/C (second compound 0.1 µM, first compound 0.00316 µM): 92%
- viability, T/C (second compound 0.1 µM, first compound 0.01 µM): 100%
- viability, T/C (second compound 0.1 µM, first compound 0.0316 µM): 118%
- viability, T/C (second compound 0.1 µM, first compound 0.1 µM): 103%
- viability, T/C (second compound 0.316 µM, first compound 0.000316 µM): 97.5%
- viability, T/C (second compound 0.316 µM, first compound 0.001 µM): 81.7%
- viability, T/C (second compound 0.316 µM, first compound 0.00316 µM): 85.4%
- viability, T/C (second compound 0.316 µM, first compound 0.01 µM): 111%
- viability, T/C (second compound 0.316 µM, first compound 0.0316 µM): 102%
- viability, T/C (second compound 0.316 µM, first compound 0.1 µM): 132%
- viability, T/C (second compound 1 µM, first compound 0.000316 µM): 105%
- viability, T/C (second compound 1 µM, first compound 0.001 µM): 111%
- viability, T/C (second compound 1 µM, first compound 0.00316 µM): 111%
- viability, T/C (second compound 1 µM, first compound 0.01 µM): 90.5%
- viability, T/C (second compound 1 µM, first compound 0.0316 µM): 118%
- viability, T/C (second compound 1 µM, first compound 0.1 µM): 98.1%
- viability, T/C (second compound 3.16 µM, first compound 0.000316 µM): 88.2%
- viability, T/C (second compound 3.16 µM, first compound 0.001 µM): 106%
- viability, T/C (second compound 3.16 µM, first compound 0.00316 µM): 92.1%
- viability, T/C (second compound 3.16 µM, first compound 0.01 µM): 99.5%
- viability, T/C (second compound 3.16 µM, first compound 0.0316 µM): 107%
- viability, T/C (second compound 3.16 µM, first compound 0.1 µM): 126%
- viability, T/C (second compound 10 µM, first compound 0.000316 µM): 112%
- viability, T/C (second compound 10 µM, first compound 0.001 µM): 98.5%
- viability, T/C (second compound 10 µM, first compound 0.00316 µM): 104%
- viability, T/C (second compound 10 µM, first compound 0.01 µM): 102%
- viability, T/C (second compound 10 µM, first compound 0.0316 µM): 105%
- viability, T/C (second compound 10 µM, first compound 0.1 µM): 105%

Source: PubChem BioAssay AID1963852 (Molecular Pharmacology Branch, DTP, NCI, 2024)
